In patent US11472811B2, “Pyrazolotriazolopyrimidine derivatives as A2A receptor antagonist” (BEIGENE, LTD., priority 2018, dated 2022) one finds IC50 data, which are given here for 27 compounds.

The structures appear in SMILES notation.

human A2A receptor (A2AR), sequence (P29274 whole entry): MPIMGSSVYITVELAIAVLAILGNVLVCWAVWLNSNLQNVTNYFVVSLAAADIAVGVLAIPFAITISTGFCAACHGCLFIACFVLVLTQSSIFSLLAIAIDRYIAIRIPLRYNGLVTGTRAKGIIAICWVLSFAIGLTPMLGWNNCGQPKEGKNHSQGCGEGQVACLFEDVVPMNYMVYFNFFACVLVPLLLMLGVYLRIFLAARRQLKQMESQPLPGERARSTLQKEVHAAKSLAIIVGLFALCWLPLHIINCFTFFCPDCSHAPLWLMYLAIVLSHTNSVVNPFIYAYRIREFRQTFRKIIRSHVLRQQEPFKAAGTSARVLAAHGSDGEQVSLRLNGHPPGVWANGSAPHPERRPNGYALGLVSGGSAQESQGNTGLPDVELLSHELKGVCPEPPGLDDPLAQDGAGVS

In the test the target is human A2A receptor (A2AR) (Homo sapiens (Human), UniProt P29274). Kind of test: Luciferase reporter assay (HEK293-A2AR-luc2p/CRE/Hygro cells). Type of test: cell-based. The note with it: 3 nM CGS21680, 5 h incubation. Put shortly:
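HEK293 cells stably expressing human A2AR and a CRE-luc2P reporter were seeded in 1% FBS with 1 U/mL adenosine deaminase. After 18 h they were stimulated 5 h with 3 nM CGS21680 plus compound (0.1–10000 nM), then luciferase luminescence was read. IC50 was taken from inhibition curves, with CGS21680 alone set as 100%.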
For orientation: In a reporter assay the amount or activity of a reporter protein is the signal.
Regarding `Nc1nc2c(cnn2C(C(=O)N[C@@H]2CCC[C@@H]2O)c2ccccc2)c2nc(-c3ccco3)nn12` (stereo partly drawn) [Example 90, 2-(5-amino-2-(furan-2-yl)-7H-pyrazolo[4,3-e][1,2,4]triazolo[1,5-c]pyrimidin-7-yl)-N-((1R,2S)-2-hydroxycyclopentyl)-2-phenylacetamide], the concentration for half-maximal inhibition (IC50) came out at 6.9 nM.

In turn, `CC(C(=O)N[C@H]1CCC[C@@H](O)C1)(c1ccccc1)n1ncc2c1nc(N)n1nc(-c3ccco3)nc21` (stereo partly drawn) [Example 123, 2-(5-amino-2-(furan-2-yl)-7H-pyrazolo[4,3-e][1,2,4]triazolo[1,5-c]pyrimidin-7-yl)-N-((1S,3R)-3-hydroxycyclohexyl)-2-phenylpropanamide] returned an IC50 of 8.5 nM.

Compound `Cc1cccnc1CNC(=O)[C@@](C)(c1ccccc1)n1ncc2c1nc(N)n1nc(-c3ccco3)nc21` [Example 111B, (R)-2-(5-amino-2-(furan-2-yl)-7H-pyrazolo[4,3-e][1,2,4]triazolo[1,5-c]pyrimidin-7-yl)-N-((3-methylpyridin-2-yl)methyl)-2-phenylpropanamide] came in with an IC50 of 0.5 nM.

As to `Nc1nc2c(cnn2C(C(=O)NCc2cccc(C(F)(F)F)c2)c2ccccc2)c2nc(-c3ccco3)nn12` (stereo not drawn) [Example 22, 2-(5-amino-2-(furan-2-yl)-7H-pyrazolo[4,3-e][1,2,4]triazolo[1,5-c]pyrimidin-7-yl)-2-phenyl-N-(3-(trifluoromethyl)benzyl)acetamide], the IC50 was determined as 1.4 nM.

In the case of `CNC(=O)C(C)(c1ccccc1)n1ncc2c1nc(N)n1nc(-c3ccco3)nc21` (stereo not drawn) [Example 32, 2-(5-amino-2-(furan-2-yl)-7H-pyrazolo[4,3-e][1,2,4]triazolo[1,5-c]pyrimidin-7-yl)-N-methyl-2-phenylpropanamide], the 50% inhibitory concentration (IC50) worked out at 25 nM.

The compound `Cc1cccnc1CNC(=O)C(C)(c1ccccc1)n1ncc2c1nc(N)n1nc(-c3ccco3)nc21` (stereo not drawn) [Example 111, 2-(5-amino-2-(furan-2-yl)-7H-pyrazolo[4,3-e][1,2,4]triazolo[1,5-c]pyrimidin-7-yl)-N-((3-methylpyridin-2-yl)methyl)-2-phenylpropanamide] had an IC50 of 0.6 nM.

`COc1ccccc1C(C)(C(=O)NCC1(O)COC1)n1ncc2c1nc(N)n1nc(-c3ccco3)nc21` (stereo not drawn) [Example 70, 2-(5-amino-2-(furan-2-yl)-7H-pyrazolo[4,3-e][1,2,4]triazolo[1,5-c]pyrimidin-7-yl)-N-((3-hydroxyoxetan-3-yl)methyl)-2-(2-methoxyphenyl)propanamide] came in with an IC50 of 1.7 nM.

In turn, `CC(C(=O)NCC1CCCOC1)(c1ccccc1)n1ncc2c1nc(N)n1nc(-c3ccco3)nc21` (stereo not drawn) [Example 61, 2-(5-amino-2-(furan-2-yl)-7H-pyrazolo[4,3-e][1,2,4]triazolo[1,5-c]pyrimidin-7-yl)-2-phenyl-N-((tetrahydro-2H-pyran-3-yl)methyl)propanamide] came in with a concentration for half-maximal inhibition (IC50) of 12.4 nM. This IC50 lies about 7.3-fold higher than the previous one.

On to `Cc1ccc(CNC(=O)C(C)(c2ccccc2)n2ncc3c2nc(N)n2nc(-c4ccco4)nc32)nc1` (stereo not drawn) [Example 109, 2-(5-amino-2-(furan-2-yl)-7H-pyrazolo[4,3-e][1,2,4]triazolo[1,5-c]pyrimidin-7-yl)-N-((5-methylpyridin-2-yl)methyl)-2-phenylpropanamide], for which inhibition was half-maximal at 1 nM (IC50). This IC50 lies about 12-fold lower than the previous one.

`CC(C(=O)NCC1(O)COC1)(c1ccccc1F)n1ncc2c1nc(N)n1nc(-c3ccco3)nc21` (stereo not drawn) [Example 87, 2-(5-amino-2-(furan-2-yl)-7H-pyrazolo[4,3-e][1,2,4]triazolo[1,5-c]pyrimidin-7-yl)-2-(2-fluorophenyl)-N-((3-hydroxyoxetan-3-yl)methyl)propanamide] displayed an IC50 of 4.9 nM. This IC50 is about 4.9-fold higher than that of the compound before.

As to `CC(C(=O)NCc1ncccc1F)(c1ccccc1)n1ncc2c1nc(N)n1nc(-c3ccco3)nc21` (stereo not drawn) [Example 119, 2-(5-amino-2-(furan-2-yl)-7H-pyrazolo[4,3-e][1,2,4]triazolo[1,5-c]pyrimidin-7-yl)-N-((3-fluoropyridin-2-yl)methyl)-2-phenylpropanamide], the midpoint of inhibition, the IC50, lay at 3.2 nM.

As for `CC(C(=O)NCCC1CCOC1)(c1ccccc1)n1ncc2c1nc(N)n1nc(-c3ccco3)nc21` (stereo not drawn) [Example 74, 2-(5-amino-2-(furan-2-yl)-7H-pyrazolo[4,3-e][1,2,4]triazolo[1,5-c]pyrimidin-7-yl)-2-phenyl-N-(2-(tetrahydrofuran-3-yl)ethyl)propanamide], the IC50 was 11.1 nM.

The compound `Nc1nc2c(cnn2C(C(=O)NC2CCCCC2)c2ccccc2)c2nc(-c3ccco3)nn12` (stereo not drawn) [Example 2, 2-(5-amino-2-(furan-2-yl)-7H-pyrazolo[4,3-e][1,2,4]triazolo[1,5-c]pyrimidin-7-yl)-N-cyclohexyl-2-phenylacetamide] showed an IC50 of 11.9 nM.

With `CC(C(=O)N[C@H]1CC[C@@H](O)C1)(c1ccccc1)n1ncc2c1nc(N)n1nc(-c3ccco3)nc21` (stereo partly drawn) [Example 136, 2-(5-amino-2-(furan-2-yl)-7H-pyrazolo[4,3-e][1,2,4]triazolo[1,5-c]pyrimidin-7-yl)-N-((1S,3R)-3-hydroxycyclopentyl)-2-phenylpropanamide], the half-inhibitory concentration (IC50) was 7.9 nM.

Compound `C[C@](C(=O)NCc1ncccc1C(F)(F)F)(c1ccccc1)n1ncc2c1nc(N)n1nc(-c3ccco3)nc21` [Example 141B, (R)-2-(5-amino-2-(furan-2-yl)-7H-pyrazolo[4,3-e][1,2,4]triazolo[1,5-c]pyrimidin-7-yl)-2-phenyl-N-((3-(trifluoromethyl)pyridin-2-yl)methyl)propanamide] showed a 50% inhibitory concentration (IC50) of 1.1 nM. Against the preceding compound, the IC50 is about 7.2-fold lower.

In the case of `Cc1ccnc(CNC(=O)C(C)(c2ccccc2)n2ncc3c2nc(N)n2nc(-c4ccco4)nc32)c1` (stereo not drawn) [Example 110, 2-(5-amino-2-(furan-2-yl)-7H-pyrazolo[4,3-e][1,2,4]triazolo[1,5-c]pyrimidin-7-yl)-N-((4-methylpyridin-2-yl)methyl)-2-phenylpropanamide], the 50% inhibitory concentration (IC50) was determined as 2.4 nM. This IC50 is about 2.2-fold higher than that of the compound before.

On to `COc1cccnc1CNC(=O)C(C)(c1ccccc1)n1ncc2c1nc(N)n1nc(-c3ccco3)nc21` (stereo not drawn) [Example 115, 2-(5-amino-2-(furan-2-yl)-7H-pyrazolo[4,3-e][1,2,4]triazolo[1,5-c]pyrimidin-7-yl)-N-((3-methoxypyridin-2-yl)methyl)-2-phenylpropanamide], for which the IC50 was 1.9 nM.

Take `Nc1nc2c(cnn2C2(C(=O)NCC3(O)COC3)CCCc3ccccc32)c2nc(-c3ccco3)nn12` (stereo not drawn) [Example 93, 1-(5-amino-2-(furan-2-yl)-7H-pyrazolo[4,3-e][1,2,4]triazolo[1,5-c]pyrimidin-7-yl)-N-((3-hydroxyoxetan-3-yl)methyl)-1,2,3,4-tetrahydronaphthalene-1-carboxamide]: half-maximal inhibition (IC50) required 3.8 nM.

`Nc1nc2c(cnn2C(C(=O)NC2CCc3ccccc32)c2ccccc2)c2nc(-c3ccco3)nn12` (stereo not drawn) [Example 14, 2-(5-amino-2-(furan-2-yl)-7H-pyrazolo[4,3-e][1,2,4]triazolo[1,5-c]pyrimidin-7-yl)-N-(2,3-dihydro-1H-inden-1-yl)-2-phenylacetamide] returned an IC50 of 6.1 nM.

Take `CC(C(=O)N[C@H]1C[C@@H](O)C1)(c1ccccc1)n1ncc2c1nc(N)n1nc(-c3ccco3)nc21` (stereo partly drawn) [Example 104, 2-(5-amino-2-(furan-2-yl)-7H-pyrazolo[4,3-e][1,2,4]triazolo[1,5-c]pyrimidin-7-yl)-N-((1s,3s)-3-hydroxycyclobutyl)-2-phenylpropanamide]: the IC50 came to 18.2 nM.

Compound `CC(C(=O)NCC1(O)COC1)(c1ccccc1)n1ncc2c1nc(N)n1nc(-c3ccco3)nc21` (stereo not drawn) [Example 31, 2-(5-amino-2-(furan-2-yl)-7H-pyrazolo[4,3-e][1,2,4]triazolo[1,5-c]pyrimidin-7-yl)-N-((3-hydroxyoxetan-3-yl)methyl)-2-phenylpropanamide] gave a 50% inhibitory concentration (IC50) of 5.8 nM.

For `C[C@](C(=O)NCc1cccc(C(F)(F)F)n1)(c1ccccc1)n1ncc2c1nc(N)n1nc(-c3ccco3)nc21` [Example 144B, (R)-2-(5-amino-2-(furan-2-yl)-7H-pyrazolo[4,3-e][1,2,4]triazolo[1,5-c]pyrimidin-7-yl)-2-phenyl-N-((6-(trifluoromethyl)pyridin-2-yl)methyl)propanamide], the IC50 came to 2.1 nM.

Regarding `Nc1nc2c(cnn2C(C(=O)NC2COc3ccccc32)c2ccccc2)c2nc(-c3ccco3)nn12` (stereo not drawn) [Example 20, 2-(5-amino-2-(furan-2-yl)-7H-pyrazolo[4,3-e][1,2,4]triazolo[1,5-c]pyrimidin-7-yl)-N-(2,3-dihydrobenzofuran-3-yl)-2-phenylacetamide], 14.6 nM corresponded to half-maximal inhibition (IC50).

Compound `CC(C(=O)N[C@H]1COC[C@H]1O)(c1ccccc1)n1ncc2c1nc(N)n1nc(-c3ccco3)nc21` (stereo partly drawn) [Example 107, 2-(5-amino-2-(furan-2-yl)-7H-pyrazolo[4,3-e][1,2,4]triazolo[1,5-c]pyrimidin-7-yl)-N-((3S,4S)-4-hydroxytetrahydrofuran-3-yl)-2-phenylpropanamide] returned an IC50 of 76.3 nM.

In the case of `C[C@](C(=O)NCc1cc(C(F)(F)F)ccn1)(c1ccccc1)n1ncc2c1nc(N)n1nc(-c3ccco3)nc21` [Example 143B, (R)-2-(5-amino-2-(furan-2-yl)-7H-pyrazolo[4,3-e][1,2,4]triazolo[1,5-c]pyrimidin-7-yl)-2-phenyl-N-((4-(trifluoromethyl)pyridin-2-yl)methyl)propanamide], the IC50 amounted to 5.8 nM. This IC50 lies about 13-fold lower than the previous one.

The compound `C[C@](C(=O)NCc1ccc(F)cn1)(c1ccccc1)n1ncc2c1nc(N)n1nc(-c3ccco3)nc21` [Example 117B, (R)-2-(5-amino-2-(furan-2-yl)-7H-pyrazolo[4,3-e][1,2,4]triazolo[1,5-c]pyrimidin-7-yl)-N-((5-fluoropyridin-2-yl)methyl)-2-phenylpropanamide] gave a half-inhibitory concentration (IC50) of 3.2 nM.

Compound `CC(C(=O)NCc1cccnc1)(c1ccccc1)n1ncc2c1nc(N)n1nc(-c3ccco3)nc21` (stereo not drawn) [Example 84, 2-(5-amino-2-(furan-2-yl)-7H-pyrazolo[4,3-e][1,2,4]triazolo[1,5-c]pyrimidin-7-yl)-2-phenyl-N-(pyridin-3-ylmethyl)propenamide] yielded an IC50 of 17 nM.

A word on the IC50: it is the midpoint of a concentration-inhibition curve. High values mean weaker potency, low ones greater potency.
